pIC50: −log10 of the molar value. Starred links: 1 amine or outer side, 2 acyl side, 3 side chain; linkers in the order of their positions; H or OH if unused. Positions of bridges follow the written chain, without caps; N, C: chain ends. Non-standard residues stand in square brackets, D forms with d. Residues, ends and D or L forms follow the SMILES beside them. ξ: configuration not given here. X2 = CC(=O)N(C)[C@@H](CC(C)C)C(=O)O[C@@H](CC(O)C(O)CC(C)C)CC(N[*:2])C(O)C(=O)[*:1]; hPhe = N[C@@H](CCc1ccccc1)C(=O)O; X1 = C/C=C(/N[*:1])C(=O)[*:2]; Dhb = C/C=C(\N)C(=O)O; ξT = CC(O)C(N)C(=O)O
How the values were obtained:
NCI-H460 = experiment: Cytotoxicity against human H460 cells; type: cell-based
A498 = experiment: Cytotoxicity against human A498 cells; type: cell-based
SK-OV-3 = experiment: Cytotoxicity against human SKOV3 cells; type: cell-based
CCRF-CEM = experiment: Cytotoxicity against human CEM cells; type: cell-based
SK-MEL-28 = experiment: Cytotoxicity against human SK-MEL-28 cells; type: cell-based
U-251 = experiment: Cytotoxicity against human U251 cells; type: functional, cell-based
[1] = Cytotoxicity against human SKBR3 cells; type: cell-based; conditions: SK-BR-3
HT-29 = experiment: Cytotoxicity against human HT29 cells; type: cell-based

C/C=C1\NC(=O)[C@H](Cc2ccccc2)NC(=O)[C@@H]2CCCN2C(=O)CNC(=O)[C@H](CCC(N)=O)NC(=O)C(O)C(C[C@H](CC(O)C(O)CC(C)C)OC(=O)[C@H](CC(C)C)N(C)C(C)=O)NC(=O)[C@@H]2CCCN2C(=O)[C@H](CCc2ccccc2)NC(=O)C(C(C)O)NC(=O)/C(=C\C)NC(=O)[C@H](CO)NC1=O (stereo partly drawn) [PAHAYOKOLIDES A] (QGPF[Dhb]S[X1][ξT][hPhe]P; linker N-C via X2) gave a pIC50 (NCI-H460) of 5.67, a pIC50 (A498) of 5.58 and a pIC50 (SK-OV-3) of 5.56. It also gave a pIC50 (CCRF-CEM) of 5.49, a pIC50 (SK-MEL-28) of 5.24 and a pIC50 (U-251) of 4.88. The pIC50 [1] was 4.78 and the pIC50 (HT-29) was 4.35.

From ChEMBL document CHEMBL1139859, “Structures of pahayokolides A and B, cyclic peptides from a Lyngbya sp” (J Nat Prod, 2007)
